According to paper PMC6270994, “The Hydractinia echinata Test-System. III: Structure-Toxicity Relationship Study of Some Azo-, Azo-Anilide, and Diazonium Salt Derivatives” (Molecules, 2014):

tested on: Hydractinia echinata; assay: Hydractinia echinata test system (HeTS): reduction of Cs+-induced metamorphosis of larvae; assay type: in vivo; conditions: Hydractinia echinata, read-out: F(1), F(2),... individual log(1/MRC50) toxicity value (converted)
Procedure: The average (C) concentrations of these values were calculated too. The MRC50 value calculations (Chicu et al.) result from the graphical representation of the metamorphosis variation, M (%), (Y axis) function of the xenobiotic’s concentration (mol/L) (X axis), where the metamorphosis decreases with the rise of the xenobiotic’s concentration. Thus, the MRC50 value represents the xenobiotic’s concentration (mol/L) necessary for a 50% decrease of metamorphosis, with respect to control.
For each concentration of substance experiments were performed in triplicate and were repeated at least twice.
Colonies of H. echinata (Biologische Anstalt, Helgoland, Germany) were used to obtain eggs and larvae. The culture medium was artificial seawater (980 mosmol, pH 8.2, 18 °C). In laboratory an artificial metamorphosis can be synchronically started by the introduction of Cs^+ ions or by using seawater without Mg^2+ ions; it then lasts only 24 h. Under the action of external stimulus of Cs^+ ions or Cs^+ ions together with the tested compounds, one part of larvae further lives as such and another one is metamorphosized to the polyp form. The evaluation of the influence of the tested substance is very clear this way, the proposed method being based on this aspect.
H. echinata larvae were exposed to seawater containing Cs^+ and simultaneously one of the test substances for 3 h. The percentage of animals that underwent metamorphosis (development into polyps) was determined after 24 h. […] We chose a concentration of inducers which caused about […] to three quarters of the larvae to metamorphose in order to have conditions which are highly sensitive against an inhibitory influence. […] This concentration was termed MRC50 (for Metamorphosis Reduction Concentration) and is similar to the effective EC50 concentration that gives half maximal effective response.

Compound	EC50 [µM]
Nc1ccc(C(=O)O)c(O)c1 [Ac p-AmS, p-aminosalicylic acid]	1070

same assay, conditions: Hydractinia echinata; MRC50 in mol/L = concentration for 50% decrease of metamorphosis vs control; larvae exposed 3 h with Cs+, read after 24 h; read-out: M: experimental Mlog(1/MRC50) (converted)

Compound	EC50 [µM]
COc1ccc(N=Nc2ccccc2)cc1 [Compound 1, (4-Methoxyphenyl) (phenyl)diazene]	6.31
O=C(O)c1ccc(N=Nc2ccccc2)cc1 [Compound 2, 4-(2-Phenyldiazen-1-yl)benzoic acid]	214
CN(C)c1ccc(/N=N/c2ccccc2C(=O)O)cc1 [Compound 3, Methyl Red]	209
Nc1ccc(/N=N/c2ccccc2C(=O)O)cc1C(=O)O [Compound 5, 2-Amino-5-[(E)-2-(2-carboxyphenyl)diazen-1-yl]benzoic acid]	26.3
CCN(CC)c1ccc(N=Nc2ccc(C(=O)O)cc2)cc1 [Compound 6, 4-{2-[4-(Diethylamino)phenyl]diazen-1-yl}benzoic acid]	17
O=C(O)c1ccc(N=Nc2ccc(O)cc2)cc1 [Compound 7, 4-[2-(4-Hydroxyphenyl)diazen-1-yl]benzoic acid]	479
O=C(O)c1ccc(/N=N/c2ccc(O)cc2O)cc1 [Compound 8, 4-[(E)-2-(2,4-dihydroxy-phenyl)diazen-1-yl]benzoic acid]	490
O=C(O)c1ccc(N=Nc2ccc(O)c(C(=O)O)c2)cc1 [Compound 9, 5-[2-(4-Carboxyphenyl)diazen-1-yl]-2-hydroxybenzoic acid]	447
Cc1ccc(N=Nc2ccc([N+](=O)[O-])cc2)c(O)c1 [Compound 20, 5-Methyl-2-[2-(4-nitrophenyl)-diazen-1-yl]phenol]	77.6
O=S(=O)(O)c1ccc(O)c(/N=N/c2ccc(O)cc2O)c1 [Compound 21, 3-[(E)-2-(2,4-dihydroxyphenyl)-diazen-1-yl]-4-hydroxybenzene-1-sulfonic acid]	53.7
O=C(O)c1ccc(N=Nc2c(O)ccc3ccccc23)cc1 [Compound 23, 4-[2-(2-Hydroxynaphthalen-1-yl)diazen-1-yl]benzoic acid]	245
O=C(O)c1ccc(N=Nc2c(O)c(C(=O)O)cc3ccccc23)cc1 [Compound 25, 4-[2-(4-Carboxyphenyl)diazen-1-yl]-3-hydroxynaphthalene-2-carboxylic acid]	355
Nc1c(N=Nc2ccc(C(=O)O)cc2)ccc2ccccc12 [Compound 26, 4-[2-(1-Aminonaphthalen-2-yl)diazen-1-yl]benzoic acid]	18.6
O=S(=O)(O)c1cc(S(=O)(=O)O)c2c(/N=N/c3ccccc3)c(O)ccc2c1 [Compound 39, Acid Orange 10 (Orange G)]	457

same assay, conditions: Hydractinia echinata; parent dye, Table 2; read-out: F(1+2+...)e experimental toxicity log(1/MRC50) (converted)

Compound	EC50 [µM]
COc1ccc(N=Nc2ccccc2)cc1 [Compound 1, (4-Methoxyphenyl) (phenyl)diazene]	6.31
O=C(O)c1ccc(N=Nc2ccccc2)cc1 [Compound 2, 4-(2-Phenyldiazen-1-yl)benzoic acid]	214
O=C(O)c1ccc(N=Nc2ccc(O)cc2)cc1 [Compound 7, 4-[2-(4-Hydroxyphenyl)diazen-1-yl]benzoic acid]	479
O=C(O)c1ccc(/N=N/c2ccc(O)cc2O)cc1 [Compound 8, 4-[(E)-2-(2,4-dihydroxy-phenyl)diazen-1-yl]benzoic acid]	490
O=C(O)c1ccc(N=Nc2ccc(O)c(C(=O)O)c2)cc1 [Compound 9, 5-[2-(4-Carboxyphenyl)diazen-1-yl]-2-hydroxybenzoic acid]	447
Cc1ccc(N=Nc2ccc([N+](=O)[O-])cc2)c(O)c1 [Compound 20, 5-Methyl-2-[2-(4-nitrophenyl)-diazen-1-yl]phenol]	77.6

same assay, conditions: Hydractinia echinata; product of enzymatic reduction/hydrolysis of the dye; read-out: F(1), F(2),... individual log(1/MRC50) toxicity value (converted)

Compound	EC50 [µM]
Nc1ccc(O)cc1O [2,4-DHA, 2,4-dihydroxyaniline]	0.55
Nc1ccc(C(=O)O)cc1 [APAB, p-aminobenzoic acid]	457

same assay, conditions: MRC50 in mol/L = concentration for 50% decrease of metamorphosis vs control; larvae exposed 3 h with Cs+, read after 24 h

Compound	M: experimental Mlog(1/MRC50)
CN(C)c1ccc(N=Nc2ccccc2C(=O)[O-])cc1.[Na+] [Compound 4, Methyl Red (sodium salt)]	3.79
O=S(=O)([O-])c1cccc(N=Nc2ccc(Nc3ccccc3)cc2)c1.[Na+] [Compound 12, Metanil Yellow (sodium salt)]	4.17
CN(C)c1ccc(N=Nc2ccc(S(=O)(=O)[O-])cc2)cc1.[Na+] [Compound 14, Methyl Orange (Orange III)]	3.74
O=S(=O)([O-])c1ccc(N=Nc2c(O)ccc3ccccc23)cc1.[Na+] [Compound 28, Acid Orange 7]	3.17
Cc1ccc(N=Nc2c(O)c(S(=O)(=O)[O-])cc3cc(S(=O)(=O)[O-])ccc23)c(C)c1.[Na+].[Na+] [Compound 38, Acid Red 26 (Ponceau Xilidine)]	4.06
O=S(=O)([O-])c1ccc2c(N=Nc3ccccc3[As](=O)(O)O)c(O)c(S(=O)(=O)[O-])cc2c1.[Na+].[Na+] [Compound 40, Thorin]	3.46
O=S(=O)([O-])c1cc(O)c2c(O)c(N=Nc3ccccc3)c(S(=O)(=O)[O-])cc2c1.[Na+].[Na+] [Compound 41, Acid Red 29 (Chromotrope 2R)]	3.65
CC(=O)Nc1cc(S(=O)(=O)[O-])cc2cc(S(=O)(=O)[O-])c(N=Nc3ccccc3)c(O)c12.[Na+].[Na+] [Compound 42, Acid Red 1 (Azophloxin)]	3.66
CC(=O)Nc1cc(S(=O)(=O)[O-])cc2cc(S(=O)(=O)[O-])c(N=Nc3ccccc3C)c(O)c12.[Na+].[Na+] [Compound 43, Acid Red 35]	3.63
O=S(=O)([O-])c1ccc(N=Nc2c(O)ccc3ccccc23)c2ccccc12.[Na+] [Compound 56, Acid Red 88 (Fast Red AV)]	3.31
O=S(=O)([O-])c1ccc2c(N=Nc3ccc(S(=O)(=O)[O-])c4ccccc34)c(O)c(S(=O)(=O)[O-])cc2c1.[Na+].[Na+].[Na+] [Compound 57, Acid Red 27 (Amaranth, Food Red 9)]	2.33
O=[N+]([O-])c1ccc2c(N=Nc3ccc4ccccc4c3O)c(O)cc(S(=O)(=O)[O-])c2c1.[Na+] [Compound 58, Eriochrom Black T]	4.13
Cl.Cl.Nc1ccc(N=Nc2cccc(N=Nc3ccc(N)cc3N)c2)c(N)c1 [Compound 60, Bismark Brown Y (Vesuvin)]	3.87
Cc1ccccc1/N=N/c1ccc(/N=N/c2c(O)ccc3ccccc23)c(C)c1 [Compound 63, Sudan IV (Scarlet Red)]	3.05
Cc1cccc(N=Nc2ccc(N=Nc3c(O)ccc4ccccc34)cc2C)c1 [Compound 64, Solvent Red 25 (Sudan Red B)]	3.42
Oc1ccc2ccccc2c1N=Nc1ccc(N=Nc2ccccc2)cc1 [Compound 65, Solvent Red 23 (Sudan III, Sudan V)]	3.64
O=S(=O)([O-])c1ccc(N=Nc2ccc(N=Nc3c(O)ccc4ccccc34)c(S(=O)(=O)[O-])c2)cc1.[Na+].[Na+] [Compound 68, Acid Red 66 (Biebrischer Scharlach)]	3.95
O=S(=O)([O-])c1ccc(N=Nc2ccc(N=Nc3c(O)c(S(=O)(=O)[O-])cc4cc(S(=O)(=O)[O-])ccc34)c(S(=O)(=O)[O-])c2)cc1.[Na+].[Na+].[Na+].[Na+] [Compound 69, Ponceau S]	3.97
Nc1c(N=Nc2ccc([N+](=O)[O-])cc2)c(S(=O)(=O)[O-])cc2cc(S(=O)(=O)[O-])c(N=Nc3ccccc3)c(O)c12.[Na+].[Na+] [Compound 74, Acid Black 1 (Amido Black 10B)]	4.33

same assay, conditions: even at a concentration of 0.11 mol/L

Compound	toxicity
O=C([O-])C1=NN(c2ccc(S(=O)(=O)[O-])cc2)C(=O)C1N=Nc1ccc(S(=O)(=O)[O-])cc1.[Na+].[Na+].[Na+] (stereo not drawn) [Compound 55, Acid Yellow 23 (Tartrazine, Food Yellow 4)]	not toxic at all

same assay, conditions: parent dye, Table 2

Compound	F(1+2+...)e experimental toxicity log(1/MRC50)
CN(C)c1ccc(N=Nc2ccc(S(=O)(=O)[O-])cc2)cc1.[Na+] [Compound 14, Methyl Orange (Orange III)]	3.74

same assay, conditions: product of enzymatic reduction/hydrolysis of the dye

Compound	F(1), F(2),... individual log(1/MRC50) toxicity value
2-Aminocresol	3.21
Nc1ccc(/C=C/c2ccc(N)cc2S(=O)(=O)O)c(S(=O)(=O)O)c1 [ADASDS, diaminostilbene disulfonic acid]	3.43
Nc1ccc(S(=O)(=O)O)cc1 [APABS, p-aminobenzenesulfonic acid]	2.81

same assay, conditions: same column as M

Compound	M: experimental toxicity (class word)
O=C([O-])C1=NN(c2ccc(S(=O)(=O)[O-])cc2)C(=O)C1N=Nc1ccc(S(=O)(=O)[O-])cc1.[Na+].[Na+].[Na+] (stereo not drawn) [Compound 55, Acid Yellow 23 (Tartrazine, Food Yellow 4)]	NOTE
